# ChEMBL document CHEMBL1156873 (Bioorg Med Chem Lett, 2010)
# Activity calls are given as the source filed them. The calls are words filed in the database; no cut-off is given here.
# Assays:
# [1] = Half life in nude mouse microsomes; type: ADME, Microsome
# [2] = target: Serine/threonine-protein kinase mTOR (Homo sapiens, UniProt P42345); experiment: Inhibition of mTOR
# LNCaP = experiment: Cytotoxicity against human LNCAP cells; type: functional, cell-based
# [3] = Half life in human microsomes; type: ADME, Microsome
# Mus musculus [4] = experiment: Inhibition of mTOR in nude mouse bearing human MDA-MB-361 cells assessed as reduction of phosphorylated S6K (T389) level at 25 mg/kg, iv after 8 hrs; type: functional, organism-based; set-up: dose 25 mg/kg
# Mus musculus [5] = experiment: Inhibition of mTOR in nude mouse bearing human MDA-MB-361 cells assessed as reduction of phosphorylated AKT (S473) level at 25 mg/kg, iv after 8 hrs; type: functional, organism-based; set-up: dose 25 mg/kg
# Mus musculus [6] = experiment: Toxicity in nude mouse assessed as body weight change at 10 mg/kg, po daily once for 5 days; type: organism-based; set-up: dose 10 mg/kg, route oral; conditions: in vivo, 120 h
# Mus musculus [7] = experiment: Toxicity in nude mouse assessed as body weight change at 20 mg/kg, po daily once for 5 days; type: organism-based; set-up: dose 20 mg/kg, route oral; conditions: in vivo, 120 h
# MDA-MB-361 [8] = experiment: Antitumor activity against human MDA-MB-361 cells xenografted in nude mouse assessed as inhibition of tumor growth at 20 mg/kg, po daily once for 5 days measured up to 17 days; type: functional, organism-based; set-up: dose 20 mg/kg
# Mus musculus [9] = experiment: Inhibition of mTOR in nude mouse bearing human MDA-MB-361 cells assessed as reduction of phosphorylated S6 (S240/244) level at 25 mg/kg, iv after 8 hrs; type: functional, organism-based; set-up: dose 25 mg/kg
# MDA-MB-361 [10] = experiment: Antitumor activity against human MDA-MB-361 cells xenografted in nude mouse assessed as inhibition of tumor growth at 10 mg/kg, po daily once for 5 days measured up to 17 days; type: functional, organism-based; set-up: dose 10 mg/kg
SMILES,half-life [1] [min],IC50 [2] [nM],half-life [3] [min],IC50 (LNCaP) [nM],further results
CNC(=O)Nc1ccc(-c2nc(N3CC4CCC(C3)O4)c3cnn(C4CCC(OC)(OC)CC4)c3n2)cc1,15,–,30,2,–
O=C(Nc1ccccc1)Nc1ccc(-c2nc(N3CC4CCC(C3)O4)c3cnn(C4CCC5(CC4)OCCO5)c3n2)cc1,> 30,0.16,13,4,–
O=C(Nc1ccc(-c2nc(N3CC4CCC(C3)O4)c3cnn(C4CCC5(CC4)OCCO5)c3n2)cc1)NC1CC1,25,–,9,2,–
CCNC(=O)Nc1ccc(-c2nc(N3CC4CCC(C3)O4)c3cnn(C4CCC5(CC4)OCCO5)c3n2)cc1,27,–,10,1,–
O=C(Nc1ccncc1)Nc1ccc(-c2nc(N3CC4CCC(C3)O4)c3cnn(C4CCC5(CC4)OCCO5)c3n2)cc1,> 30,0.12,13,1,–
O=C(Nc1ccc(-c2nc(N3CC4CCC(C3)O4)c3cnn(C4CCC5(CC4)OCCO5)c3n2)cc1)Nc1cccnc1,> 30,0.12,13,1,–
CNC(=O)Nc1ccc(-c2nc(N3CC4CCC(C3)O4)c3cnn(C4CCN(C(=O)OC(C)C)CC4)c3n2)cc1,21,0.19,–,6,–
O=C(NCCF)Nc1ccc(-c2nc(N3CC4CCC(C3)O4)c3cnn(C4CCC5(CC4)OCCO5)c3n2)cc1,> 30,0.22,16,1,–
CNC(=O)Nc1ccc(-c2nc(N3CC4CCC(C3)O4)c3cnn(C4CCN(C(=O)OC(C)(C)C)CC4)c3n2)cc1,11,0.26,–,27,–
CNC(=O)Nc1ccc(-c2nc(N3CC4CCC(C3)O4)c3cnn(CCO)c3n2)cc1,–,–,–,650,–
CNC(=O)Nc1ccc(-c2nc(N3CC4CCC(C3)O4)c3cnn(C4CCC5(CC4)OCCO5)c3n2)cc1,> 30,–,26,2,Activity (Mus musculus [4]): Active; Activity (Mus musculus [5]): Active; Activity (Mus musculus [6]): Non-toxic; Activity (Mus musculus [7]): Non-toxic; Activity (MDA-MB-361 [8]): Active; Activity (Mus musculus [9]): Active; Activity (MDA-MB-361 [10]): Active
CNC(=O)Nc1ccc(-c2nc(N3CC4CCC(C3)O4)c3cnn(C4CCC5(CC4)OCCCO5)c3n2)cc1,> 30,–,> 30,8,–

# Further lines, with some results ahead:
half-life [1] [min],IC50 [2] [nM],half-life [3] [min],SMILES,IC50 (LNCaP) [nM],further results
> 30,0.3,> 30,CNC(=O)Nc1ccc(-c2nc(N3CC4CCC(C3)O4)c3cnn([C@H]4CC[C@@H](O)CC4)c3n2)cc1,20,–
20,–,10,CNC(=O)Nc1ccc(-c2nc(N3CC4CCC(C3)O4)c3cnn(C4CCC(=O)CC4)c3n2)cc1,32,–
17,–,–,CNC(=O)Nc1ccc(-c2nc(N3CC4CCC(C3)O4)c3cnn([C@H]4CC[C@@H](OC)CC4)c3n2)cc1,1,–
> 30,0.74,–,CCn1ncc2c(N3CC4CCC(C3)O4)nc(-c3ccc(NC(=O)NC)cc3)nc21,70,–
> 30,–,5,CNC(=O)Nc1ccc(-c2nc(N3CC4CCC(C3)O4)c3cnn(CC(F)(F)F)c3n2)cc1,38,–
> 30,0.38,15,CNC(=O)Nc1ccc(-c2nc(N3CC4CCC(C3)O4)c3cnn([C@H]4CC[C@H](OC)CC4)c3n2)cc1,2,–
> 30,0.24,> 30,CNC(=O)Nc1ccc(-c2nc(N3CC4CCC(C3)O4)c3cnn([C@H]4CC[C@H](O)CC4)c3n2)cc1,20,–
> 30,1.34,–,CNC(=O)Nc1ccc(-c2nc(N3CC4CCC(C3)O4)c3cnn(C)c3n2)cc1,170,–
> 30,0.12,12,CNC(=O)Nc1ccc(-c2nc(N3CC4CCC(C3)O4)c3cnn(C(C)C)c3n2)cc1,5,–
> 30,–,–,CNC(=O)Nc1ccc(-c2nc(N3CC4CCC(C3)O4)c3cnn(C4CCN(C(=O)OC)CC4)c3n2)cc1,26,–
5,–,–,CNC(=O)Nc1ccc(-c2nc(N3CC4CCC(C3)O4)c3cnn(CCN(C)C)c3n2)cc1,400,–
